Experimental data reported in ChEMBL document CHEMBL4482301, “Methods to identify modulators” (2012).

Columns and labels:
Assay type in all cases: functional, cell-based
[1] = target: T1, Taste receptor type 2 member 7 (Homo sapiens) (UniProt Q9NYW3); test: Agonist activity at N-terminal rat ST3 receptor-fused full length human TAS2R7 transiently expressed in HEK293T cells co-expressing Galpha16gust44 assessed as increase in intracellular calcium level by measuring deltaF/F0 ratio level by Fluo-4AM dye based FLIPR assay
T1 sequence (whole entry): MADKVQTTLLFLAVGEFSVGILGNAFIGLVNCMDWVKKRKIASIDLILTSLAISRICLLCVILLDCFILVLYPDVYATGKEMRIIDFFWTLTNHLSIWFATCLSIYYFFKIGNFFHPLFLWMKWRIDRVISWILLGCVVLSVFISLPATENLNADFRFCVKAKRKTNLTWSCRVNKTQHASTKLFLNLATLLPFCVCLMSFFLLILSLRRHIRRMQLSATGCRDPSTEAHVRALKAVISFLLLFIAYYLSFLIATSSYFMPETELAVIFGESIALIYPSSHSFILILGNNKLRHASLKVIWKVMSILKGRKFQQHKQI

[2] = target: T1, Taste receptor type 2 member 7 (Homo sapiens); test: (§1) Agonist activity at N-terminal rat ST3 receptor-fused full length human TAS2R7 stably expressed in HEK293T cells co-expressing Galpha16gust44 assessed as increase in intracellular calcium level by measuring deltaF/F0 ratio level at 0.16 mM by Fluo-4AM dye based FLIPR assay (reference value: 0.15 +/- 0.06)
[3] = target: T1, Taste receptor type 2 member 7 (Homo sapiens); test: Agonist activity at N-terminal rat ST3 receptor-fused full length human TAS2R7 transiently expressed in HEK293T cells co-expressing Galpha16gust44 assessed as increase in intracellular calcium level by measuring deltaF/F0 ratio level at 0.04 mM by Fluo-4AM dye based FLIPR assay
[4] = target: T1, Taste receptor type 2 member 7 (Homo sapiens); test: as §1, with “2.60” for “0.16”, “0.65” for “0.15”, “0.13)” for “0.06)”
[5] = target: T1, Taste receptor type 2 member 7 (Homo sapiens); test: as §1, with “0.04” for “0.16”, “0.08” for “0.15”, “0.03)” for “0.06)”
[6] = target: T1, Taste receptor type 2 member 7 (Homo sapiens); test: as §1, with “0.02” for “0.16”, “0.08” for “0.15”, “0.03)” for “0.06)”
[7] = target: T1, Taste receptor type 2 member 7 (Homo sapiens); test: Agonist activity at N-terminal rat ST3 receptor-fused full length human TAS2R7 transiently expressed in HEK293T cells co-expressing Galpha16gust44 assessed as increase in intracellular calcium level by measuring deltaF/F0 ratio level at 1.3 mM by Fluo-4AM dye based FLIPR assay
[8] = target: T1, Taste receptor type 2 member 7 (Homo sapiens); test: Agonist activity at N-terminal rat ST3 receptor-fused full length human TAS2R7 transiently expressed in HEK293T cells co-expressing Galpha16gust44 assessed as increase in intracellular calcium level by measuring deltaF/F0 ratio level at 0.01 mM by Fluo-4AM dye based FLIPR assay
[9] = target: T1, Taste receptor type 2 member 7 (Homo sapiens); test: Agonist activity at N-terminal rat ST3 receptor-fused full length human TAS2R7 transiently expressed in HEK293T cells co-expressing Galpha16gust44 assessed as increase in intracellular calcium level by measuring deltaF/F0 ratio level at 2.60 mM by Fluo-4AM dye based FLIPR assay
[10] = target: T1, Taste receptor type 2 member 7 (Homo sapiens); test: as §1, with “0.65” for “0.16”, “0.41” for “0.15”, “0.14)” for “0.06)”
[11] = target: T1, Taste receptor type 2 member 7 (Homo sapiens); test: as §1, with “0.01” for “0.16”, “0.09” for “0.15”, “0.04)” for “0.06)”
[12] = target: T1, Taste receptor type 2 member 7 (Homo sapiens); test: Agonist activity at N-terminal rat ST3 receptor-fused full length human TAS2R7 transiently expressed in HEK293T cells co-expressing Galpha16gust44 assessed as increase in intracellular calcium level by measuring deltaF/F0 ratio level at 0.02 mM by Fluo-4AM dye based FLIPR assay
[13] = target: T1, Taste receptor type 2 member 7 (Homo sapiens); test: Agonist activity at N-terminal rat ST3 receptor-fused full length human TAS2R7 transiently expressed in HEK293T cells co-expressing Galpha16gust44 assessed as increase in intracellular calcium level by measuring deltaF/F0 ratio level at 0.33 mM by Fluo-4AM dye based FLIPR assay
[14] = target: T1, Taste receptor type 2 member 7 (Homo sapiens); test: Agonist activity at N-terminal rat ST3 receptor-fused full length human TAS2R7 transiently expressed in HEK293T cells co-expressing Galpha16gust44 assessed as increase in intracellular calcium level by measuring deltaF/F0 ratio level at 0.16 mM by Fluo-4AM dye based FLIPR assay
[15] = target: T1, Taste receptor type 2 member 7 (Homo sapiens); test: as §1, with “1.3” for “0.16”, “0.53” for “0.15”, “0.1)” for “0.06)”
[16] = target: T1, Taste receptor type 2 member 7 (Homo sapiens); test: Agonist activity at N-terminal rat ST3 receptor-fused full length human TAS2R7 transiently expressed in HEK293T cells co-expressing Galpha16gust44 assessed as increase in intracellular calcium level by measuring deltaF/F0 ratio level at 0.08 mM by Fluo-4AM dye based FLIPR assay
[17] = target: T1, Taste receptor type 2 member 7 (Homo sapiens); test: as §1, with “0.33” for “0.16”, “0.34” for “0.15”
[18] = target: T1, Taste receptor type 2 member 7 (Homo sapiens); test: Agonist activity at N-terminal rat ST3 receptor-fused full length human TAS2R7 transiently expressed in HEK293T cells co-expressing Galpha16gust44 assessed as increase in intracellular calcium level by measuring deltaF/F0 ratio level at 0.65 mM by Fluo-4AM dye based FLIPR assay
[19] = target: T1, Taste receptor type 2 member 7 (Homo sapiens); test: as §1, with “0.08” for “0.16”, “0.1” for “0.15”, “0.04)” for “0.06)”

Activity [1]	Ratio [2]	Ratio [3]	Ratio [4]	Ratio [5]	Ratio [6]	Ratio [7]	Ratio [8]	Ratio [9]	Ratio [10]	Ratio [11]	Ratio [12]	Ratio [13]	Ratio [14]	Ratio [15]	Ratio [16]	Ratio [17]	Ratio [18]	Ratio [19]	SMILES
Dose-dependent effect																			CC(C)[C@H]1CC[C@H](C)C[C@@H]1O
Dose-dependent effect	0.23	0.08	0.92	0.13	0.09	0.53	0.09	0.65	1.03	0.09	0.08	0.34	0.15	1.16	0.1	0.61	0.41	0.12	CC(C)[C@@H]1CC[C@@H](C)C[C@H]1O
